Data taken from patent publication US10752624B2, “Kinase inhibitors” (Origenis GmbH, priority 2012, dated 2020).
pIC50: −log10 of the molar value.

Target: LRRK2 (Homo sapiens, UniProt Q5S007)
Test: LRRK2-LRRK2 G2019S-Assay (LanthaScreen Eu Kinase Binding Assay)
Settings: 5 nM LRRK2, 10 nM tracer 236, 2 nM EU-Anti-GST antibody, 1 h at RT; read-out: LRRK2 Activities: IC50
Procedure: In the assay LanthaScreen™ Eu Kinase Binding Assay by Invitrogen Corporation (Carlsbad) the effect of invention of a compound on the phosphorylation is determined by measurement of fluorescence intensity emission ratio based on the binding and displacement of a proprietary, Alexa Fluor® 647-labeled, ATP-competitive kinase inhibitor scaffold (kinase tracer) to the kinase of interest. Binding of the tracer to the kinase is detected using a europium-labeled anti-tag antibody, which binds to the kinase of interest. Simultaneous binding of both the tracer and antibody to the kinase results in a high degree of FRET (fluorescence resonance energy transfer) from the europium (Eu) donor fluorophore to the Alexa Fluor® 647 acceptor fluorophore on the kinase tracer. Binding of an inhibitor to the kinase competes for binding with the tracer, resulting in a loss of FRET. The fluorescence intensity ratio is directly proportional to the amount of peptide phosphorylation.
To the wells of an 384 well small volume plate (Greiner, Frickenhausen) are added (i) the compound under test in 5% DMSO/distilled water (5 μl), (ii) 5 μl of the kinase antibody mixture resulting in a final concentration 5 nM LRRK2 or their mutants, 2 nM EU-Anti-GST antibody in 1× kinase buffer A. The reaction was started with addition of (iii) 5 μl resulting in a final concentration of 10 nM tracer 236. The assay plate was incubated at RT for 1 h and fluorescence intensity readings were collected using a TECAN M1000 at two wavelengths of λex 340/λem 615 nm and λex 340/λem 665 nm with a delay time of 100 μs and an integration time of 200 μs after 60 minutes. The emission ratio was calculated by division of the acceptor/tracer emission ([…]) by the antibody/donor emission ([…]). The inhibitor concentration was plotted versus the emission ratio to determine the IC50 using XLFit 5.0 (IDBS, Guildford) to fit to a sigmoidal dose response curve with a variable slope.

Chain of LRRK2 (Q5S007 970-2527 limits assumed): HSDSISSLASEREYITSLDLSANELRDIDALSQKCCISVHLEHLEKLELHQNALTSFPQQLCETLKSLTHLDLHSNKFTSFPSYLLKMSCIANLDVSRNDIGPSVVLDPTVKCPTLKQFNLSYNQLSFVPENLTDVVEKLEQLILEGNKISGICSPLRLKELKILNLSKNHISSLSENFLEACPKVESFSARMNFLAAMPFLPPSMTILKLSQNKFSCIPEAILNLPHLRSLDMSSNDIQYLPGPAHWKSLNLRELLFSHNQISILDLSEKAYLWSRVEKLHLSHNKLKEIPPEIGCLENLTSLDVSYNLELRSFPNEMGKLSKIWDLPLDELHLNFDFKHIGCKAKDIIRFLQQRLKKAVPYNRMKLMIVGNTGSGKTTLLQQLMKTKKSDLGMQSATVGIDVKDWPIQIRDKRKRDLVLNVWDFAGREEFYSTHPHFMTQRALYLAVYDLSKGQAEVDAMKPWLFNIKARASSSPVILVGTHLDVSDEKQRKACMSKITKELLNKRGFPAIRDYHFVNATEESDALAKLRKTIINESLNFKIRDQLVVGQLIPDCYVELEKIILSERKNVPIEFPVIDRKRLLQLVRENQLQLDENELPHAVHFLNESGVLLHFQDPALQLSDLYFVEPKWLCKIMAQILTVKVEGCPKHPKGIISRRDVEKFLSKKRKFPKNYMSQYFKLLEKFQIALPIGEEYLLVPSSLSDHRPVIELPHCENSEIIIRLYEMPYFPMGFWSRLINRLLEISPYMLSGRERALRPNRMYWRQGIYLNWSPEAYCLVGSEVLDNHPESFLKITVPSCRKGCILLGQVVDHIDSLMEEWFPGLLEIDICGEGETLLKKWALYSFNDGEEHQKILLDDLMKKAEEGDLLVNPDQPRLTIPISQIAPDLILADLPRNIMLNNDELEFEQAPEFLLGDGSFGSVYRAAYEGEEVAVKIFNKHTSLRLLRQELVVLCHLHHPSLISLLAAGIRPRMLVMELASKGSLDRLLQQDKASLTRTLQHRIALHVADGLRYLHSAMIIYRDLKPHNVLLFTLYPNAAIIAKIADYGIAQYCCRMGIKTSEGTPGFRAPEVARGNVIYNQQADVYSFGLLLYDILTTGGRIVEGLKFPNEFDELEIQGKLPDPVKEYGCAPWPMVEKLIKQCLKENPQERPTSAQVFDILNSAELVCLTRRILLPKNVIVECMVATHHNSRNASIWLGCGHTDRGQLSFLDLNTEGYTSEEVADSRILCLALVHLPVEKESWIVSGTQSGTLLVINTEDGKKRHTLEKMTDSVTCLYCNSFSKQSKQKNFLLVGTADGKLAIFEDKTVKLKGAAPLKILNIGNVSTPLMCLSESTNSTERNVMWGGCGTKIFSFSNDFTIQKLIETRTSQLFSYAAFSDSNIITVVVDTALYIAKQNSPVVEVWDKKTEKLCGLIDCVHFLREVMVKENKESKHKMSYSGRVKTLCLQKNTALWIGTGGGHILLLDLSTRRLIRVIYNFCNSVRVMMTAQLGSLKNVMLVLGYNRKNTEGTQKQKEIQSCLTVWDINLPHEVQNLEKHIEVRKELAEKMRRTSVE

## COCCn1cc(Nc2nc3cccc(OC)c3c3c[nH]nc23)cn1 [Example 156, 9-methoxy-N-(1-(2-methoxyethyl)-1H-pyrazol-4-yl)-2H-pyrazolo[3,4-c]quinolin-4-amine]
  pIC50: > 8.00

## COc1cccc2nc(Nc3cnn(C4CCN(C(C)=O)CC4)c3)c3[nH]ncc3c12 [Example 157, 1-(4-(4-((9-methoxy-3H-pyrazolo[3,4-c]quinolin-4-yl)amino)-1H-pyrazol-1-yl)piperidin-1-yl)ethan-1-one]
  pIC50: > 8.00

## CS(=O)(=O)c1ccc2c(c1)nc(Nc1cnn(C3CCOCC3)c1)c1[nH]ncc12 [Example 160, 7-(methylsulfonyl)-N-(1-(tetrahydro-2H-pyran-4-yl)-1H-pyrazol-4-yl)-3H-pyrazolo[3,4-c]quinolin-4-amine]
  pIC50: > 8.00

## COc1ccc2nc(Nc3cnn(C(C)(C)C(N)=O)c3)c3n[nH]cc3c2c1 [Example 164, 2-(4-((8-methoxy-2H-pyrazolo[3,4-c]quinolin-4-yl)amino)-1H-pyrazol-1-yl)-2-methylpropanamide]
  pIC50: 6.00 to 7.00

## CS(=O)(=O)c1ccc2c(c1)nc(Nc1cnn(C3CCOCC3)c1)c1[nH]ncc12 [Example 169, 7-(methylsulfonyl)-N-(1-(tetrahydro-2H-pyran-4-yl)-1H-pyrazol-4-yl)-3H-pyrazolo[3,4-c]quinolin-4-amine]
  pIC50: 7.00 to 8.00

## CS(=O)(=O)c1ccc2c(c1)nc(Nc1ccc(C(=O)N3CCOCC3)c(F)c1)c1[nH]ncc12 [Example 174, (2-fluoro-4-((7-(methylsulfonyl)-3H-pyrazolo[3,4-c]quinolin-4-yl)amino)phenyl)(morpholino)methanone]
  pIC50: 6.00 to 7.00

## COc1cccc2nc(Nc3cnn(C(C)(C)C)c3)c3[nH]ncc3c12 [Example 181, N-(1-(tert-butyl)-1H-pyrazol-4-yl)-9-methoxy-3H-pyrazolo[3,4-c]quinolin-4-amine]
  pIC50: > 8.00

## COc1cccc2nc(Nc3cnn(C4(C#N)CCCCC4)c3)c3[nH]ncc3c12 [Example 185, 1-(4-((9-methoxy-3H-pyrazolo[3,4-c]quinolin-4-yl)amino)-1H-pyrazol-1-yl)cyclohexanecarbonitrile]
  pIC50: > 8.00

## COc1cc(C(=O)N2CCOCC2)ccc1Nc1nc2cc(S(C)(=O)=O)ccc2c2cn[nH]c12 [Example 194, (3-methoxy-4-((7-(methylsulfonyl)-3H-pyrazolo[3,4-c]quinolin-4-yl)amino)phenyl)(morpholino)methanone]
  pIC50: 6.00 to 7.00

## COc1cc(C(=O)N2CCOCC2)ccc1Nc1nc2cccc(OC)c2c2cn[nH]c12 [Example 200, (3-methoxy-4-((9-methoxy-3H-pyrazolo[3,4-c]quinolin-4-yl)amino)phenyl)(morpholino)methanone]
  pIC50: 7.00 to 8.00

## Cn1cccc(Nc2nc3ccc(S(C)(=O)=O)cc3c3cn[nH]c23)c1=O [Example 202, 1-methyl-3-((8-(methylsulfonyl)-3H-pyrazolo[3,4-c]quinolin-4-yl)amino)pyridin-2(1H)-one]
  pIC50: 6.00 to 7.00

## COCCn1cc(Nc2nc3cccc(OC)c3c3cn[nH]c23)c(C)n1 [Example 205, 9-methoxy-N-(1-(2-methoxyethyl)-3-methyl-1H-pyrazol-4-yl)-3H-pyrazolo[3,4-c]quinolin-4-amine]
  pIC50: 7.00 to 8.00

## COc1cccc2nc(Nc3cn(C4CCOCC4)nc3C)c3[nH]ncc3c12 [Example 207, 9-methoxy-N-(3-methyl-1-(tetrahydro-2H-pyran-4-yl)-1H-pyrazol-4-yl)-3H-pyrazolo[3,4-c]quinolin-4-amine]
  pIC50: 7.00 to 8.00

## COCCn1cc(Nc2nc3ccc(S(C)(=O)=O)cc3c3cn[nH]c23)c(C)n1 [Example 209, N-(1-(2-methoxyethyl)-3-methyl-1H-pyrazol-4-yl)-8-(methylsulfonyl)-3H-pyrazolo[3,4-c]quinolin-4-amine]
  pIC50: 7.00 to 8.00

## COCCn1ncc(Nc2nc3ccc(S(C)(=O)=O)cc3c3cn[nH]c23)c1C [Example 210, N-(1-(2-methoxyethyl)-5-methyl-1H-pyrazol-4-yl)-8-(methylsulfonyl)-3H-pyrazolo[3,4-c]quinolin-4-amine]
  pIC50: 7.00 to 8.00

## Cc1nn(C(C)C)cc1Nc1nc2ccc(S(C)(=O)=O)cc2c2cn[nH]c12 [Example 213, N-(1-isopropyl-3-methyl-1H-pyrazol-4-yl)-8-(methylsulfonyl)-3H-pyrazolo[3,4-c]quinolin-4-amine]
  pIC50: > 8.00

## Cc1c(Nc2nc3ccc(S(C)(=O)=O)cc3c3cn[nH]c23)cnn1C(C)C [Example 214, N-(1-isopropyl-5-methyl-1H-pyrazol-4-yl)-8-(methylsulfonyl)-3H-pyrazolo[3,4-c]quinolin-4-amine]
  pIC50: > 8.00

## Cc1nn(C2CCOCC2)cc1Nc1nc2ccc(S(C)(=O)=O)cc2c2cn[nH]c12 [Example 216, N-(3-methyl-1-(tetrahydro-2H-pyran-4-yl)-1H-pyrazol-4-yl)-8-(methylsulfonyl)-3H-pyrazolo[3,4-c]quinolin-4-amine]
  pIC50: 7.00 to 8.00

## Cc1nn(C(C)C)cc1Nc1nc2ccc(S(C)(=O)=O)cc2c2cn[nH]c12 [Example 217, N-(1-isopropyl-3-methyl-1H-pyrazol-4-yl)-8-(methylsulfonyl)-3H-pyrazolo[3,4-c]quinolin-4-amine]
  pIC50: 7.00 to 8.00

## COc1cccc2nc(Nc3cnn(C(C)C)c3C)c3[nH]ncc3c12 [Example 219, N-(1-isopropyl-5-methyl-1H-pyrazol-4-yl)-9-methoxy-3H-pyrazolo[3,4-c]quinolin-4-amine]
  pIC50: > 8.00

## COc1cccc2nc(Nc3cn(C(C)C)nc3C)c3[nH]ncc3c12 [Example 220, N-(1-isopropyl-3-methyl-1H-pyrazol-4-yl)-9-methoxy-3H-pyrazolo[3,4-c]quinolin-4-amine]
  pIC50: > 8.00

## COc1cccc2nc(Nc3cn(C(C)C)nc3C)c3[nH]ncc3c12 [Example 222, N-(1-isopropyl-3-methyl-1H-pyrazol-4-yl)-9-methoxy-3H-pyrazolo[3,4-c]quinolin-4-amine]
  pIC50: 7.00 to 8.00

## COc1nn(C2CCN(C(C)(C)C)CC2)cc1Nc1nc2cccc(OC)c2c2cn[nH]c12 [Example 225, N-(1-(1-(tert-butyl)piperidin-4-yl)-3-methoxy-1H-pyrazol-4-yl)-9-methoxy-3H-pyrazolo[3,4-c]quinolin-4-amine]
  pIC50: 7.00 to 8.00

## CS(=O)(=O)c1ccc2nc(Nc3cc(S(C)(=O)=O)sc3Cl)c3[nH]ncc3c2c1 [Example 230, N-(2-chloro-5-(methylsulfonyl)thiophen-3-yl)-8-(methylsulfonyl)-3H-pyrazolo[3,4-c]quinolin-4-amine]
  pIC50: 7.00 to 8.00

## COc1cccc2nc(Nc3c(C)nn(C(C)C)c3C)c3[nH]ncc3c12 [Example 234, N-(1-isopropyl-3,5-dimethyl-1H-pyrazol-4-yl)-9-methoxy-3H-pyrazolo[3,4-c]quinolin-4-amine]
  pIC50: 6.00 to 7.00

## COCCCn1ncc(Nc2nc3cccc(OC)c3c3cn[nH]c23)c1Cl [Example 235, N-(5-chloro-1-(3-methoxypropyl)-1H-pyrazol-4-yl)-9-methoxy-3H-pyrazolo[3,4-c]quinolin-4-amine]
  pIC50: 7.00 to 8.00

## COCCCn1ncc(Nc2nc3ccc(S(C)(=O)=O)cc3c3cn[nH]c23)c1Cl [Example 237, N-(5-chloro-1-(3-methoxypropyl)-1H-pyrazol-4-yl)-8-(methylsulfonyl)-3H-pyrazolo[3,4-c]quinolin-4-amine]
  pIC50: 7.00 to 8.00

## Cn1nc(C2CC2)cc1Nc1nc2ccc(S(C)(=O)=O)cc2c2cn[nH]c12 [Example 239, N-(3-cyclopropyl-1-methyl-1H-pyrazol-5-yl)-8-(methylsulfonyl)-3H-pyrazolo[3,4-c]quinolin-4-amine]
  pIC50: 6.00 to 7.00

## COc1cc(N2CCOC2=O)ccc1Nc1nc2ccc(S(C)(=O)=O)cc2c2cn[nH]c12 [Example 240, 3-(3-methoxy-4-((8-(methylsulfonyl)-3H-pyrazolo[3,4-c]quinolin-4-yl)amino)phenyl)oxazolidin-2-one]
  pIC50: 6.00 to 7.00

## COCCn1ncc(Nc2nc3cccc(OC)c3c3cn[nH]c23)c1Cl [Example 241, N-(5-chloro-1-(2-methoxyethyl)-1H-pyrazol-4-yl)-9-methoxy-3H-pyrazolo[3,4-c]quinolin-4-amine]
  pIC50: 7.00 to 8.00

## COCCn1ncc(Nc2nc3ccc(S(C)(=O)=O)cc3c3cn[nH]c23)c1Cl [Example 242, N-(5-chloro-1-(2-methoxyethyl)-1H-pyrazol-4-yl)-8-(methylsulfonyl)-3H-pyrazolo[3,4-c]quinolin-4-amine]
  pIC50: 7.00 to 8.00

## COCCn1ncc(Nc2nc3cc(S(C)(=O)=O)ccc3c3cn[nH]c23)c1Cl [Example 243, N-(5-chloro-1-(2-methoxyethyl)-1H-pyrazol-4-yl)-7-(methylsulfonyl)-3H-pyrazolo[3,4-c]quinolin-4-amine]
  pIC50: 7.00 to 8.00

## Cc1c(Nc2nc3cc(S(C)(=O)=O)ccc3c3cn[nH]c23)cnn1C(C)C [Example 244, N-(1-isopropyl-5-methyl-1H-pyrazol-4-yl)-7-(methylsulfonyl)-3H-pyrazolo[3,4-c]quinolin-4-amine]
  pIC50: 7.00 to 8.00
